Test results reported in patent US11214803B2, “Modulators of YAP1 expression” (Ionis Pharmaceuticals, Inc., priority 2019, dated 2022).
Strand notation (5' to 3'): a small letter for the sugar, then the base; units joined by * are phosphorothioate-linked, units joined directly phosphodiester-linked; [ ] holds rarer units or linkages, { } end groups; capitals alone tell only the bases. e = 2'-O-(2-methoxyethyl) (MOE); k = constrained ethyl (cEt); [5mC] = 5-methylcytosine; d = 2'-deoxy (DNA); m = 2'-O-methyl

Tested on: Yap1 mRNA
Assay: Antisense inhibition of human Yap1 in SNU-449 cells by modified oligonucleotides, single dose (Example 5, RTS36584)
Format: cell-based
How it was run: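 SNU-449 cells were given 2,000 nM oligonucleotide by free uptake for about 48 h. Yap1 mRNA was then measured by RT-qPCR with primer probe set RTS36584, normalized to total RNA by RIBOGREEN and expressed as percent of untreated control.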

[1] = Table 46, Yap1 mRNA as percent of untreated control, SNU-449 cells, single dose
[2] = Table 45, Yap1 mRNA as percent of untreated control, SNU-449 cells, single dose
[3] = Table 40 (separate experiment), SNU-449 cells, 10,000 cells per well, free uptake, 2,000 nM oligonucleotide, approx. 48 hours, RTS36584, normalized to RIBOGREEN, Yap1 mRNA relative to untreated control
[4] = Table 50, Yap1 mRNA remaining as percent of untreated control (UT), SNU-449 cells, single dose
[5] = Table 48, Yap1 mRNA level relative to untreated control, modified oligonucleotides targeting SEQ ID NO.: 1 and 2
[6] = Table 52, Yap1 mRNA, modified oligonucleotides targeting SEQ ID NO: 1 and 2

## 1198827 (kT*kT*dA*d[5mC]*dA*dT*dT*dA*dG*dG*dA*kA*e[5mC]*kA*eA*kG; antisense) [Compound 1198827]
[1]
  YAP1 (% UT): 60 % UT

## 1198914 (kT*kT*dT*dT*dA*d[5mC]*dA*dT*dT*dA*dG*kG*dA*kA*d[5mC]*kA; antisense) [Compound 1198914]
[2]
  YAP1 (% UTC): 68 % UTC

## 1198714 (kT*eG*kT*d[5mC]*dT*d[5mC]*dA*dT*dG*d[5mC]*d[5mC]*dT*eT*eA*kT*kA; antisense) [Compound 1198714]
[3]
  YAP1 (% UTC): 20 % UTC

## 1198278 (kT*kA*dA*dG*dT*dA*dA*dG*dG*dT*dT*eT*e[5mC]*e[5mC]*k[5mC]*kA; antisense) [Compound 1198278]
Table 43 experiment, SNU-449 cells, 10,000 cells per well, free uptake, 2,000 nM, approximately 48 hours, RTS36584, Yap1 mRNA normalized to RIBOGREEN, relative to untreated control cells
  YAP1 (% UTC): 43 % UTC

## 1198602 (antisense kA*kT*kA*dT*dT*dG*d[5mC]*dA*dA*dT*d[5mC]*dT*kG*kT*k[5mC]*eT) [Compound 1198602]
[4]
  YAP1 (% UT): 29 % UT

## 1198893 (kA*kA*dA*dT*dT*dG*dT*d[5mC]*dT*d[5mC]*dA*kT*dG*k[5mC]*d[5mC]*kT; antisense) [Compound 1198893]
[2]
  YAP1 (% UTC): 58 % UTC

## 1197216 (antisense kA*kA*kA*dG*dT*dG*dT*dA*dT*dG*dT*d[5mC]*dA*kG*kA*kA) [Compound 1197216]
[5]
  YAP1 (% UT): 12 % UT

## 1198794 (antisense kA*eA*k[5mC]*dT*dT*dT*dA*dA*dA*dG*dT*dG*eT*eA*kT*kG) [Compound 1198794]
Table 41, SNU-449 cells, 10,000 cells per well, free uptake, 2,000 nM modified oligonucleotide, approximately 48 hours, RTS36584, normalized to RIBOGREEN, Yap1 mRNA relative to untreated control cells
  YAP1 (% UTC): 74 % UTC

## 1198543 (antisense kA*kT*kT*dG*dT*d[5mC]*dT*d[5mC]*dA*dT*dG*d[5mC]*k[5mC]*kT*kT*eA) [Compound 1198543]
Table 49, Yap1 mRNA level relative to untreated control, modified oligonucleotides targeting SEQ ID NO.: 1 and 2
  YAP1 (% UT): 15 % UT

## 1198446 (kA*dA*d[5mC]*dT*dT*dT*dA*dA*dA*dG*dT*kG*eT*kA*eT*kG; antisense) [Compound 1198446]
[3]
  YAP1 (% UTC): 83 % UTC

## 1198286 (kA*kA*kT*dT*dG*dT*d[5mC]*dT*d[5mC]*dA*dT*dG*k[5mC]*e[5mC]*kT*eT; antisense) [Compound 1198286]
[5]
  YAP1 (% UT): 17 % UT

## 1198842 (kG*kT*dG*d[5mC]*dT*dT*dT*dG*dG*dA*dA*kG*eA*kT*e[5mC]*kT; antisense) [Compound 1198842]
[1]
  YAP1 (% UT): 37 % UT

## 1200807 (k[5mC]*kT*kG*dA*dG*mG*dT*dA*dT*dA*dA*d[5mC]*dT*kG*kG*kG; antisense) [Compound 1200807]
[6]
  YAP1 (% UT): 69 % UT

## 1198808 (antisense kG*kA*dA*dA*dT*dT*dG*dT*d[5mC]*dT*d[5mC]*kA*eT*kG*e[5mC]*k[5mC]) [Compound 1198808]
[1]
  YAP1 (% UT): 40 % UT

## 1200873 (kT*kT*kA*dG*dA*mC*dT*dA*dA*dG*dT*dA*dA*kG*kG*kT; antisense) [Compound 1200873]
[6]
  YAP1 (% UT): 55 % UT

## 1198869 (kA*kT*dG*dT*dA*dA*dT*dA*dT*dT*dG*k[5mC]*eA*kA*eT*k[5mC]; antisense) [Compound 1198869]
[1]
  YAP1 (% UT): 49 % UT

## 1197235 (antisense kA*kT*kT*dA*mG*dA*dG*dT*dA*dT*dG*dT*dG*kG*k[5mC]*kA) [Compound 1197235]
[4]
  YAP1 (% UT): 16 % UT

## 1198749 (kT*eT*kA*dA*dG*d[5mC]*dA*d[5mC]*dT*dT*dT*dT*eA*e[5mC]*kA*kT; antisense) [Compound 1198749]
[3]
  YAP1 (% UTC): 73 % UTC

## 1198854 (kA*kT*dA*dT*dG*dG*dT*dT*dT*dT*dG*kT*eG*kT*eG*kT; antisense) [Compound 1198854]
[1]
  YAP1 (% UT): 56 % UT

## 1198313 (kA*kG*k[5mC]*dA*d[5mC]*dT*dT*dT*dT*dA*d[5mC]*dA*kT*eT*kA*eG; antisense) [Compound 1198313]
[5]
  YAP1 (% UT): 31 % UT

## 1009396 (k[5mC]*kA*k[5mC]*dT*dG*dA*dG*dG*dT*dA*dT*dA*dA*k[5mC]*kT*kG; antisense) [Compound 1009396]
[5]
  YAP1 (% UT): 41 % UT

## 1197306 (k[5mC]*kA*kA*d[5mC]*mU*d[5mC]*dT*dT*dA*dT*dA*dT*dG*kG*kT*kT; antisense) [Compound 1197306]
Table 51, Yap1 mRNA remaining as percent of untreated control (UT), SNU-449 cells, single dose
  YAP1 (% UT): 77 % UT

## 1198321 (kT*kG*k[5mC]*dT*dT*dT*dG*dG*dA*dA*dG*dA*kT*e[5mC]*kT*eG; antisense) [Compound 1198321]
[5]
  YAP1 (% UT): 45 % UT
